Measured values taken from US20230028539A1, “PHARMACEUTICAL COMPOSITION, COMPLEMENTARY KIT AND APPLICATION THEREOF” (SHANGHAI PHARMACEUTICALS HOLDING CO., LTD., priority 2019, published 2023).
Read-outs that look alike come from different tables or passages of the source.

Key:
[1] = test system: 6-OHDA-induced unilateral damage PD model; experiment: Apomorphine-induced contralateral circling test in 6-OHDA-induced rat Parkinson's disease model; format: in vivo, male Wistar rat; details: after 29 days of treatment, FIG. 3
Protocol: 3.1.2 The animals were injected intraperitoneally with APO (0.5 mg/kg, 2 mL/kg) 3 minutes before testing.
3.1.3 The animals were placed in a circular test box after dosing. Changes in animal behavior were observed and recorded by Ethovi si on video software, and the number of revolutions of each animal within 30 min was counted manually.
3.1.4 APO-induced circling behavior: The animal circled rightwards with the left hind limb as the fulcrum. One turn was counted as one revolution by taking the head of the rat as a reference. Animals with more than 180 revolutions within 30 min were qualified rat Parkinson's disease models.
3.2.1 140 animals were randomly selected, and intramuscularly injected with Zoletil at 30 mg/kg in combination with 3 mg/kg of xylazine hydrochloride for general anesthesia before the operation.
3.2.7 The injection of 6-OHDA was started 2 min after the needle reached the designated depth. […]
3.3.3 The animals were placed in a circular test box after dosing. Changes in animal behavior were observed and recorded by Ethovision video software, and the number of revolutions of each animal within 30 min was counted manually.
3.3.4 APO-induced circling behavior: The animal circled rightwards with the left hind limb as the fulcrum. One turn was counted as one revolution by taking the head of the rat as a reference. […]

MAO-B = biological target: T1, MAO-B (Homo sapiens, UniProt P27338); details: cited from earlier work; for inhibitory strength to MAO-B than that to MAO-A: selectivity MAO-B over MAO-A
T1 sequence (P27338 1-520): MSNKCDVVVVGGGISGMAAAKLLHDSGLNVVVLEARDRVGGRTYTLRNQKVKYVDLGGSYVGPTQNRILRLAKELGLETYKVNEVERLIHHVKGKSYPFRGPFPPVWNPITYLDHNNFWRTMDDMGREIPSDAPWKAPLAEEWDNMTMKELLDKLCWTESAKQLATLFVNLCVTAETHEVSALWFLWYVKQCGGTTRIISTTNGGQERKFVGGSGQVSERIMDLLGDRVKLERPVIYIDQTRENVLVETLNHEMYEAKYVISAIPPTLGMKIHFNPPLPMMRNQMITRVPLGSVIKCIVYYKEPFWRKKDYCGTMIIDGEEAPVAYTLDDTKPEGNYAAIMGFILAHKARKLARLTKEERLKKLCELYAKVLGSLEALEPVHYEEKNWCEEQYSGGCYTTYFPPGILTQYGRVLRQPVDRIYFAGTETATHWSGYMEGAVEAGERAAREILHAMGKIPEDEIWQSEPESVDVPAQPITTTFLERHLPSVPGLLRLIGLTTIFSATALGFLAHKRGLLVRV

[2] = test system: MPTP-induced mouse Parkinson's disease model; experiment: MPTP-induced mouse Parkinson's disease model, dopamine content in dorsal striatum by LC-MS; format: in vivo, male C57BL/6J mice
Protocol: Animals in control group were injected with an equal volume of […]. After 6 weeks, mice were euthanized and the dorsal striatum was separated after normal saline perfusion, weighed and preserved in a −80° C. freezer. The content of dopamine in dorsal striatal was determined by LC-MS. [table]

patients with early PD = details: 24 weeks, cited from earlier work

SMILES | reduction in the number of revolutions compared with that before treatment ([1]; G4, PPX 0.1 mpk P.O. QD) [%] | time after discontinuation until physiological function completely restored (MAO-B; after discontinuation) [h] | reversibility of MAO-B inhibition (MAO-B) | inhibitory strength to MAO-B than that to MAO-A (MAO-B) [fold] | elevation in the number of revolutions compared with that before treatment ([1]; G3, SAF 15 mpk P.O. QD) [%] | effect on dopamine reduction in the MPTP model (FIG. 1) ([2]; average dopamine concentration in mouse brain, all dose groups) | dopamine levels in dorsal striatum compared with modeling group G2 ([2]; compound B group (15 mg/kg i.p. QD 6 weeks)) | improvement of movement symptoms (total UPDRS score, LPDRS [sic]) (patients with early PD; safinamide 100 mg/d in combination with DA receptor agonist) | improvement of movement symptoms (total UPDRS score, LPDRS [sic]) (patients with early PD; safinamide 200 mg/d in combination with DA receptor agonist)
CCCN[C@H]1CCc2nc(N)sc2C1 [Compound A, Pramipexole] | 24 |  |  |  |  |  |  |  | 
C[C@H](NCc1ccc(OCc2cccc(F)c2)cc1)C(N)=O [Compound B, Safinamide] |  | 8 | reversible | 5000 | 5 | improvement effects | significantly higher | effective | no effect in improving movement symptoms
C#CCN[C@@H]1CCc2ccccc21 [rasagiline] |  |  | irreversible | 103 |  |  |  |  | 
